Test results as given in US11071737B2, “Drug inclusion complex, preparation thereof, and preparation method thereof” (priority 2015, dated 2021).
Blank lines part the entries; values can stand above or below the compound they belong to.

Assays:
[1] = Inclusion ability of different concentrations and kinds of cyclodextrins for encapsulating API
Description: Different kinds of cyclodextrins were dissolved with a pH 1.2 aqueous hydrochloric acid solution (0.1N) to determine the saturation concentration of each cyclodextrin.
(1) A certain amount of α-, β- and γ-cyclodextrin were weighed and added into a 10 mL volumetric flask, then added aqueous hydrochloric acid solution of pH 1.2 gradually until reaching the scale of the flask, shocked and performed ultrasound to dissolve the cyclodextrin. The maximum amount of cyclodextrin capable of being dissolved in a 10 mL solution was recorded.
(2) 8% α-cyclodextrin solution, 1% β-cyclodextrin solution, 20% γ-cyclodextrin solution, 20%, 30%, and 40% sulfobutyl ether-β-cyclodextrin solution and 20%, 30%, and 40% hydroxypropyl-β-cyclodextrin solution were formulated with hydrochloric acid aqueous solution of pH 1.2.
A certain amount of API was weighed and added into an appropriate volume of the cyclodextrin solution. If API was completely dissolved, the solution was filtered with a 0.45 μm PTFE filter membrane, and pH was slowly adjusted to 4.0 with a 5N NaOH aqueous solution and a 0.1N NaOH aqueous solution, observing during the pH adjusting procedure. If the solution becomes turbid when adjusting the pH, try to reduce the concentration of API. The clear solution after the pH adjustment was left to stand to observe the state of the solution after standing for 2 hours, 4 hours, and 24 hours.

[2] = Formulation of drug-containing HP-β-CD solutions (concentration by HPLC, observation on standing); conditions: 21 mg/ml added to 30% HP-β-CD solution pH 1.2, not completely dissolved, 0.45 μm PES filter
Description: The drug was dissolved completely by ultrasound (ultrasonic frequency was 59 kHz).
4. pH adjustment: The pH of the drug solution was adjusted to about 6.0 with 5N NaOH aqueous solution and 0.1 N NaOH aqueous solution.

maximum solubility in aqueous hydrochloric acid solution of pH 1.2 ([1]; pH 1.2): about 1%
Compound: OC[C@H]1O[C@@H]2O[C@H]3[C@H](O)[C@@H](O)[C@@H](O[C@H]4[C@H](O)[C@@H](O)[C@@H](O[C@H]5[C@H](O)[C@@H](O)[C@@H](O[C@H]6[C@H](O)[C@@H](O)[C@@H](O[C@H]7[C@H](O)[C@@H](O)[C@@H](O[C@H]8[C@H](O)[C@@H](O)[C@@H](O[C@H]1[C@H](O)[C@H]2O)O[C@@H]8CO)O[C@@H]7CO)O[C@@H]6CO)O[C@@H]5CO)O[C@@H]4CO)O[C@@H]3CO [β-cyclodextrin]

Compound: OC[C@H]1O[C@@H]2O[C@H]3[C@H](O)[C@@H](O)[C@@H](O[C@H]4[C@H](O)[C@@H](O)[C@@H](O[C@H]5[C@H](O)[C@@H](O)[C@@H](O[C@H]6[C@H](O)[C@@H](O)[C@@H](O[C@H]7[C@H](O)[C@@H](O)[C@@H](O[C@H]1[C@H](O)[C@H]2O)O[C@@H]7CO)O[C@@H]6CO)O[C@@H]5CO)O[C@@H]4CO)O[C@@H]3CO [α-cyclodextrin]
maximum solubility in aqueous hydrochloric acid solution of pH 1.2 ([1]; % (w/v), 10 mL): about 8%

Compound: O=C(Cc1ccc(-c2ccc(N3CCOCC3)cc2)cn1)NCc1cccc(F)c1.O=S(=O)(O)c1ccccc1 [KX2-361.benzene sulfonate]
concentration after filtering, calibrated with HPLC [2]: 20660 µg/mL
Solution phenomenon when pH is adjusted to 4 ([1]; API 0.5 mg/ml in 20% γ-CD (174:1)): turbid

maximum solubility in aqueous hydrochloric acid solution of pH 1.2 ([1]; pH 1.2): about 20%
Compound: OC[C@H]1O[C@@H]2O[C@H]3[C@H](O)[C@@H](O)[C@@H](O[C@H]4[C@H](O)[C@@H](O)[C@@H](O[C@H]5[C@H](O)[C@@H](O)[C@@H](O[C@H]6[C@H](O)[C@@H](O)[C@@H](O[C@H]7[C@H](O)[C@@H](O)[C@@H](O[C@H]8[C@H](O)[C@@H](O)[C@@H](O[C@H]9[C@H](O)[C@@H](O)[C@@H](O[C@H]1[C@H](O)[C@H]2O)O[C@@H]9CO)O[C@@H]8CO)O[C@@H]7CO)O[C@@H]6CO)O[C@@H]5CO)O[C@@H]4CO)O[C@@H]3CO [γ-cyclodextrin]
